Converted amounts (≈) assume the structure as drawn. Like-named read-outs stand apart in the source and are kept apart here. Starred links: 1 amine or outer side, 2 acyl side, 3 side chain; linkers in the order of their positions; H or OH if unused. Non-standard residues stand in square brackets, D forms with d. Residues, ends and D or L forms follow the SMILES beside them. Groups on a side chain read outwards from the residue. *: point of attachment. γGlu = O=C(O)[C@H](CCC(=O)[*:2])N[*:1]; Palmitoyl = CCCCCCCCCCCCCCCC(=O)*; AEEA = NCCOCCOCC(=O)O; Aib = CC(C)(N)C(=O)O
Experiments:
GLP-1R = GLP-1R (Homo sapiens, UniProt P43220); assay: GLP-1 receptor-mediated cAMP induction, luciferase reporter gene antagonism assay; type: cell-based; set-up: host or cells: HEK 293; details: antagonism of 0.05 nM GLP-1, HEK 293 cells
Outline: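 HEK 293 cells cotransfected with human GLP-1 receptor and CRE-luciferase were serum-deprived 16 h, then given serial peptide dilutions followed by 0.05 nM GLP-1 and incubated 5 h at 37° C.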

[1] = pH 7.7, Solubility 80 mM AmeBicarb pH7.7
[2] = Table 3, amino acid substitution variants of Jant4-K40, read-out: Bioactivity IC50

Chain of GLP-1R (P43220 24-463): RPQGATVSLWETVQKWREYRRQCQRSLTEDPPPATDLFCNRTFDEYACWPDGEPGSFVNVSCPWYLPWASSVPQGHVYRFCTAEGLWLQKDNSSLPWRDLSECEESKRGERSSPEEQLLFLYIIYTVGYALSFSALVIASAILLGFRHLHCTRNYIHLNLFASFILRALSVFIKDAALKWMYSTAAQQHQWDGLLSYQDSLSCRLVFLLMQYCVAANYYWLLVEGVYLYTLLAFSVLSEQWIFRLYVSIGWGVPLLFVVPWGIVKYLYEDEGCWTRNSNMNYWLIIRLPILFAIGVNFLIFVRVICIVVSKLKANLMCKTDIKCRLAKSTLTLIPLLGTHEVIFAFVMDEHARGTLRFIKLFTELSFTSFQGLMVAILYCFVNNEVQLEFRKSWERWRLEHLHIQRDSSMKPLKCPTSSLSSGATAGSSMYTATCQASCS

SMILES	solubility (physchem; [1]) [mg/mL]	IC50 (GLP-1R; [2]) [nM]	other results
CCCCCCCCCCCCCCCC(=O)N[C@@H](CCC(=O)NCCOCCOCC(=O)NCCOCCOCC(=O)NCCCC[C@H](NC(=O)[C@H](CO)NC(=O)[C@@H]1CCCN1C(=O)[C@@H]1CCCN1C(=O)[C@@H]1CCCN1C(=O)[C@H](C)NC(=O)CNC(=O)[C@H](CO)NC(=O)[C@H](CO)NC(=O)[C@@H]1CCCN1C(=O)CNC(=O)CNC(=O)[C@H](CCCCN)NC(=O)[C@@H](NC(=O)[C@H](CC(C)C)NC(=O)[C@H](Cc1c[nH]c2ccccc12)NC(=O)[C@H](C)NC(=O)[C@@H](NC(=O)[C@H](Cc1ccccc1)NC(=O)[C@H](CCC(=O)O)NC(=O)[C@H](CCCNC(=N)N)NC(=O)[C@@H](NC(=O)[C@H](C)NC(=O)[C@H](CCC(N)=O)NC(=O)[C@H](CCC(=O)O)NC(=O)[C@H](CCC(=O)O)NC(=O)[C@H](CC(C)C)NC(=O)[C@H](Cc1ccc(O)cc1)NC(=O)[C@H](CO)NC(=O)[C@H](CO)NC(=O)[C@@H](NC(=O)[C@@H](N)CC(=O)O)C(C)C)C(C)C)[C@@H](C)CC)C(C)C)C(N)=O)C(=O)O [compound 48] (H-DVSSYLEEQAVREFIAWLVKGGPSSGAPPPSK([AEEA-AEEA-γGlu-Palmitoyl])-NH2; N-terminus assumed)			solubility (physchem; pH 7.7, Solubility [mg/mL] 80 mM AmBicarb pH7.7): 9 mg/mL (≈ 2.22 mM); IC50 (GLP-1R; Table 2, C16 linker variants of 9-40amide Jant4 K40[X], read-out: Biactivity IC50): 9 nM
CCCCCCCCCCCCCCCC(=O)NCCCC[C@H](NC(=O)[C@H](CO)NC(=O)[C@@H]1CCCN1C(=O)[C@@H]1CCCN1C(=O)[C@@H]1CCCN1C(=O)[C@H](C)NC(=O)CNC(=O)[C@H](CO)NC(=O)[C@H](CO)NC(=O)[C@@H]1CCCN1C(=O)CNC(=O)CNC(=O)[C@H](CCCCN)NC(=O)[C@@H](NC(=O)[C@H](CC(C)C)NC(=O)[C@H](Cc1c[nH]c2ccccc12)NC(=O)[C@H](C)NC(=O)[C@@H](NC(=O)[C@H](Cc1ccccc1)NC(=O)[C@H](CCC(=O)O)NC(=O)[C@H](CCCNC(=N)N)NC(=O)[C@H](NC(=O)[C@H](C)NC(=O)[C@H](CCC(N)=O)NC(=O)[C@H](CCC(=O)O)NC(=O)[C@H](CCC(=O)O)NC(=O)[C@H](CC(C)C)NC(=O)[C@H](Cc1ccc(O)cc1)NC(=O)[C@H](CO)NC(=O)[C@H](CO)NC(=O)[C@@H](NC(=O)[C@@H](N)CC(=O)O)C(C)C)C(C)C)[C@@H](C)CC)C(C)C)C(N)=O [compound 50] (H-DVSSYLEEQA[dV]REFIAWLVKGGPSSGAPPPSK(Palmitoyl)-NH2)			solubility (physchem; pH 7.7, Solubility [mg/mL] 80 mM/AmBicarb pH7.7): > 20 mg/mL; IC50 (GLP-1R; Table 5, d-AA variants of 9-40am Jant4 K40[C16], read-out: Bioactivity KC50): 124 nM
CCCCCCCCCCCCCCCC(=O)NCCCC[C@H](NC(=O)[C@H](CO)NC(=O)[C@@H]1CCCN1C(=O)[C@@H]1CCCN1C(=O)[C@@H]1CCCN1C(=O)[C@H](C)NC(=O)CNC(=O)[C@H](CO)NC(=O)[C@H](CO)NC(=O)[C@@H]1CCCN1C(=O)CNC(=O)CNC(=O)[C@H](CCCNC(=N)N)NC(=O)[C@@H](NC(=O)[C@H](CC(C)C)NC(=O)[C@H](Cc1c[nH]c2ccccc12)NC(=O)[C@H](C)NC(=O)[C@@H](NC(=O)[C@H](Cc1ccccc1)NC(=O)[C@H](CCC(=O)O)NC(=O)[C@H](CCCNC(=N)N)NC(=O)[C@@H](NC(=O)[C@H](C)NC(=O)[C@H](CCC(N)=O)NC(=O)[C@H](CCC(=O)O)NC(=O)[C@H](CCC(=O)O)NC(=O)[C@H](CC(C)C)NC(=O)[C@H](Cc1ccc(O)cc1)NC(=O)[C@H](CO)NC(=O)[C@H](CO)NC(=O)[C@@H](NC(=O)[C@@H](N)CC(=O)O)C(C)C)C(C)C)[C@@H](C)CC)C(C)C)C(N)=O [compound 69] (H-DVSSYLEEQAVREFIAWLVRGGPSSGAPPPSK(Palmitoyl)-NH2)	13.7 (≈ 3.73 mM)	16	
CCCCCCCCCCCCCCCC(=O)NCCCC[C@H](NC(=O)[C@H](CO)NC(=O)[C@@H]1CCCN1C(=O)[C@@H]1CCCN1C(=O)[C@@H]1CCCN1C(=O)[C@H](C)NC(=O)CNC(=O)[C@H](CO)NC(=O)[C@H](CO)NC(=O)[C@@H]1CCCN1C(=O)CNC(=O)CNC(=O)[C@H](CCCNC(=N)N)NC(=O)[C@@H](NC(=O)[C@H](CC(C)C)NC(=O)[C@H](Cc1c[nH]c2ccccc12)NC(=O)[C@H](C)NC(=O)[C@@H](NC(=O)[C@H](Cc1ccccc1)NC(=O)[C@H](CCC(=O)O)NC(=O)[C@H](CCCNC(=N)N)NC(=O)[C@@H](NC(=O)[C@H](C)NC(=O)[C@H](CCC(N)=O)NC(=O)[C@H](CCC(=O)O)NC(=O)[C@H](CCC(=O)O)NC(=O)[C@H](CC(C)C)NC(=O)[C@H](Cc1ccc(O)cc1)NC(=O)[C@H](CCCNC(=N)N)NC(=O)[C@H](CO)NC(=O)[C@@H](NC(=O)[C@@H](N)CC(=O)O)C(C)C)C(C)C)[C@@H](C)CC)C(C)C)C(N)=O [compound 73] (H-DVSRYLEEQAVREFIAWLVRGGPSSGAPPPSK(Palmitoyl)-NH2; N-terminus assumed)	< 0.1	27	
CCCCCCCCCCCCCCCC(=O)NCCCC[C@H](NC(=O)[C@H](CO)NC(=O)[C@@H]1CCCN1C(=O)[C@@H]1CCCN1C(=O)[C@@H]1CCCN1C(=O)[C@H](C)NC(=O)CNC(=O)[C@H](CO)NC(=O)[C@H](CO)NC(=O)[C@@H]1CCCN1C(=O)CNC(=O)CNC(=O)[C@H](CCCNC(=N)N)NC(=O)[C@@H](NC(=O)[C@H](CC(C)C)NC(=O)[C@H](Cc1c[nH]c2ccccc12)NC(=O)[C@H](CCC(=O)O)NC(=O)[C@@H](NC(=O)[C@H](Cc1ccccc1)NC(=O)[C@H](CCC(=O)O)NC(=O)[C@H](CCCNC(=N)N)NC(=O)[C@@H](NC(=O)[C@H](C)NC(=O)[C@H](CCC(N)=O)NC(=O)[C@H](CCC(=O)O)NC(=O)[C@H](CCC(=O)O)NC(=O)[C@H](CC(C)C)NC(=O)[C@H](Cc1ccc(O)cc1)NC(=O)[C@H](CCCNC(=N)N)NC(=O)[C@H](CO)NC(=O)[C@@H](NC(=O)[C@@H](N)CC(=O)O)C(C)C)C(C)C)[C@@H](C)CC)C(C)C)C(N)=O [compound 74] (H-DVSRYLEEQAVREFIEWLVRGGPSSGAPPPSK(Palmitoyl)-NH2; N-terminus assumed)	> 20	15	
CCCCCCCCCCCCCCCC(=O)N[C@@H](CCC(=O)NCCOCCOCC(=O)NCCCC[C@H](NC(=O)[C@H](CO)NC(=O)[C@@H]1CCCN1C(=O)[C@@H]1CCCN1C(=O)[C@@H]1CCCN1C(=O)[C@H](C)NC(=O)CNC(=O)[C@H](CO)NC(=O)[C@H](CO)NC(=O)[C@@H]1CCCN1C(=O)CNC(=O)CNC(=O)[C@H](CCCNC(=N)N)NC(=O)[C@@H](NC(=O)[C@H](CC(C)C)NC(=O)[C@H](Cc1c[nH]c2ccccc12)NC(=O)[C@H](C)NC(=O)[C@@H](NC(=O)[C@H](Cc1ccccc1)NC(=O)[C@H](CCC(=O)O)NC(=O)[C@H](CCCNC(=N)N)NC(=O)[C@@H](NC(=O)[C@H](C)NC(=O)[C@H](CCC(N)=O)NC(=O)[C@H](CCC(=O)O)NC(=O)[C@H](CCC(=O)O)NC(=O)[C@H](CC(C)C)NC(=O)[C@H](Cc1ccc(O)cc1)NC(=O)[C@H](CO)NC(=O)[C@H](CO)NC(=O)[C@@H](NC(=O)[C@@H](N)CC(=O)O)C(C)C)C(C)C)[C@@H](C)CC)C(C)C)C(=O)O)C(=O)O [compound 77] (H-DVSSYLEEQAVREFIAWLVRGGPSSGAPPPSK([AEEA-γGlu-Palmitoyl])-OH)	> 20	13	
CCCCCCCCCCCCCCCC(=O)N[C@@H](CCC(=O)NCCOCCOCC(=O)NCCCC[C@H](NC(=O)[C@H](CO)NC(=O)[C@@H]1CCCN1C(=O)[C@@H]1CCCN1C(=O)[C@@H]1CCCN1C(=O)[C@H](C)NC(=O)CNC(=O)[C@H](CO)NC(=O)[C@H](CO)NC(=O)[C@@H]1CCCN1C(=O)CNC(=O)CNC(=O)[C@H](CCCNC(=N)N)NC(=O)[C@@H](NC(=O)[C@H](CC(C)C)NC(=O)[C@H](Cc1c[nH]c2ccccc12)NC(=O)[C@H](CCC(=O)O)NC(=O)[C@@H](NC(=O)[C@H](Cc1ccccc1)NC(=O)[C@H](CCC(=O)O)NC(=O)[C@H](CCCNC(=N)N)NC(=O)[C@@H](NC(=O)[C@H](C)NC(=O)[C@H](CCC(N)=O)NC(=O)[C@H](CCC(=O)O)NC(=O)[C@H](CCC(=O)O)NC(=O)[C@H](CC(C)C)NC(=O)[C@H](Cc1ccc(O)cc1)NC(=O)[C@H](CO)NC(=O)[C@H](CO)NC(=O)[C@@H](NC(=O)[C@@H](N)CC(=O)O)C(C)C)C(C)C)[C@@H](C)CC)C(C)C)C(=O)O)C(=O)O [compound 78] (H-DVSSYLEEQAVREFIEWLVRGGPSSGAPPPSK([AEEA-γGlu-Palmitoyl])-OH; N-terminus assumed)	> 20	19	
CCCCCCCCCCCCCCCC(=O)N[C@@H](CCC(=O)NCCOCCOCC(=O)NCCCC[C@H](NC(=O)[C@H](CO)NC(=O)[C@@H]1CCCN1C(=O)[C@@H]1CCCN1C(=O)[C@@H]1CCCN1C(=O)[C@H](C)NC(=O)CNC(=O)[C@H](CO)NC(=O)[C@H](CO)NC(=O)[C@@H]1CCCN1C(=O)CNC(=O)CNC(=O)C(C)(C)NC(=O)[C@H](CCCNC(=N)N)NC(=O)[C@H](CC(C)C)NC(=O)[C@H](Cc1c[nH]c2ccccc12)NC(=O)[C@H](CCC(=O)O)NC(=O)[C@@H](NC(=O)[C@H](Cc1ccccc1)NC(=O)[C@H](CCC(=O)O)NC(=O)[C@H](CCCNC(=N)N)NC(=O)[C@@H](NC(=O)[C@H](C)NC(=O)[C@H](CCC(N)=O)NC(=O)[C@H](CCC(=O)O)NC(=O)[C@H](CCC(=O)O)NC(=O)[C@H](CC(C)C)NC(=O)[C@H](Cc1ccc(O)cc1)NC(=O)[C@H](CO)NC(=O)[C@H](CO)NC(=O)[C@@H](NC(=O)[C@@H](N)CC(=O)O)C(C)C)C(C)C)[C@@H](C)CC)C(=O)O)C(=O)O [compound 80] (H-DVSSYLEEQAVREFIEWLR[Aib]GGPSSGAPPPSK([AEEA-γGlu-Palmitoyl])-OH; N-terminus assumed)	> 20	106	

— patent US20240058422A1, “GLUCAGON-LIKE PEPTIDE-1 RECEPTOR ANTAGONISTS” (INDIANA UNIVERSITY RESEARCH AND TECHNOLOGY CORPORATION, priority 2022, published 2024)
